Assay results as given in US20050032873A1, “3-Amino chroman and 2-amino tetralin derivatives” (Wyeth, priority 2003, published 2005).
pEC50, pIC50, pKi: −log10 of the molar value. Where two headings read alike, the source gives them in different places.

Legend:
5-HT1A receptor [1] = target: T1, 5-HT1A receptor (Homo sapiens, UniProt P08908); experiment: cAMP accumulation assay, 5-HT1A function; assay type: cell-based; conditions: for pEC50: cells marked EC50 (agonist); for Emax / 5-HT1A Function cAMP (Emax): in brackets after EC50 or IC50; for Emax: read-out: 5-HT1A Function cAMP (Emax); for pIC50: cells marked IC50 (antagonist), read-out: 5-HT1A Function cAMP IC50
T1 sequence (P08908 1-422): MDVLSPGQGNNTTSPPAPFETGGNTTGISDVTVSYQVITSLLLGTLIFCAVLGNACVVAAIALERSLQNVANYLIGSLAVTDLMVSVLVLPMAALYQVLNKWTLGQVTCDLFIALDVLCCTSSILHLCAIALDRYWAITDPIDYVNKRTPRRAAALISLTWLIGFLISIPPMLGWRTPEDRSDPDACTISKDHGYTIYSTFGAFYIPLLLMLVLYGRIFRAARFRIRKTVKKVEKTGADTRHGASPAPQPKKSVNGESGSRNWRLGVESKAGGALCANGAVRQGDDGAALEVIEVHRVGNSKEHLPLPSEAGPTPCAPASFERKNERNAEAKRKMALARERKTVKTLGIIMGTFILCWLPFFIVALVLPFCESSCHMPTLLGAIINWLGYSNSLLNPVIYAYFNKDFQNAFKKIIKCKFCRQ

5-HT1A receptor [2] = target: T1, 5-HT1A receptor; experiment: 5-HT1A receptor affinity: displacement of [3H] 8-OH-DPAT; assay type: binding; set-up: expressed in transfected cells; conditions: for pKi: displacement of [3H] 8-OH-DPAT, CHO cells stably transfected with human 5-HT1A receptors, read-out: 5-HT1A Receptor Affinity Ki
serotonin transporter = target: T2, serotonin transporter (Rattus norvegicus, UniProt P31652); experiment: 5-HT transporter affinity: displacement of 3H-paroxetine from male rat cortical membranes; assay type: binding; conditions: for pKi: displacement of 3H-paroxetine, male rat cortical membranes, read-out: 5-HT Transporter Affinity Ki
T2 construct: displace ^3H-paroxetine from male rat cortical membranes; from tissue; host or cells: male rat cortical membranes

[3] = target: T3, cloned human 5-HT1A receptors (Homo sapiens, UniProt P08908); experiment: 35S-GTPγS binding assay, 5-HT1A function; assay type: biochemical; conditions: for pEC50: agonist potency; for pIC50: antagonist potency, reversal of 8-OH-DPAT, read-out: 5-HT1A Function GTPγS IC50
T3 construct: expressed in transfected cells
T3 sequence (P08908 1-422): T1 sequence (P08908 1-422)
Description: The agonist or antagonist activity at 5-HT1A receptors was established by using two different assays. […] Agonists produce an increase in binding whereas antagonists produce no increase but rather reverse the effects of the standard agonist 8-OH-DPAT. The test compound's maximum stimulatory effect is represented as the Emax, while its potency is defined by the EC50. The test compound's maximum inhibitory effect is represented as the Imax, while its potency is defined by the IC50. The second assay measured cAMP accumulation upon binding of the ligand to the 5-HT1A receptor. […] The test compound's maximum stimulatory or inhibitory effect is represented as the Emax while its potency is defined by either IC50 for an antagonist or EC50 for an agonist. [^3H]-8-OH-DPAT was used to determine maximum agonist or antagonist response in both functional assays.

[4] = maximum stimulatory effect, in brackets after EC50, read-out: 5-HT1A Function GTPγS (Emax)
[5] = maximum inhibitory effect, in brackets after IC50, read-out: 5-HT1A Function GTPγS (Imax)

T2 sequence (P31652 whole entry): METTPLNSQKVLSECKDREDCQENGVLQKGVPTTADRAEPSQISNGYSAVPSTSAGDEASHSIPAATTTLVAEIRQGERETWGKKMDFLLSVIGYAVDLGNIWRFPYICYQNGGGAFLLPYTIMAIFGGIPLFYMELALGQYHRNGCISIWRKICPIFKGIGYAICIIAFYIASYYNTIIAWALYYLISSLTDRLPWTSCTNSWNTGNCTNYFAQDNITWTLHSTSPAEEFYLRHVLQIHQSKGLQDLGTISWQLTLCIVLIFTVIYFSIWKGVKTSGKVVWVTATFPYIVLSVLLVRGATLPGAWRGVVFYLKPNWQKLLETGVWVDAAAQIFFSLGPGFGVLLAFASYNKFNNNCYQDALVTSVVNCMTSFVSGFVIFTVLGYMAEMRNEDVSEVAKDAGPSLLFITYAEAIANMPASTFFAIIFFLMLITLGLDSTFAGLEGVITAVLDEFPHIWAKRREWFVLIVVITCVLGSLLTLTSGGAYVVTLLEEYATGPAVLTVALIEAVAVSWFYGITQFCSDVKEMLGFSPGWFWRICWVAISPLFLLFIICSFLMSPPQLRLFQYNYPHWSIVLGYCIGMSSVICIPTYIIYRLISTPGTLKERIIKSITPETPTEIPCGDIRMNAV

Row | pEC50 (5-HT1A receptor [1]) | Emax (5-HT1A receptor [1]) | pKi (5-HT1A receptor [2]) | pKi (serotonin transporter) | SMILES | other results
1 | 6.73 | 65% | 6.63 | 6.89 | CCCN(C1COc2cccc(OC)c2C1)[C@H]1CC[C@@H](c2c[nH]c3ccc(F)cc32)CC1 (relative stereo) [Compound 182, cis-N-[4-(5-fluoro-1H-indol-3-yl)cyclohexyl]-5-methoxy-N-propylchroman-3-amine] | pEC50 [3]: 6.05; Emax [3, 4]: 64.5%
2 | 6.52 | 65.5% | 6.74 |  | CCCN(C1COc2cccc(OC)c2C1)[C@H]1CC[C@H](c2c[nH]c3ccc(F)cc32)CC1 (relative stereo) [Compound 183, trans-N-[4-(5-fluoro-1H-indol-3-yl)cyclohexyl]-5-methoxy-N-propylchroman-3-amine] | 5-HT Transporter Affinity, % @ 1 μM (serotonin transporter; @ 1 μM): 53% @ 1 μM; pEC50 [3]: 5.00; Emax [3, 4]: 35%
3 |  |  | 8.28 | 7.66 | CCCN(C(C)CCc1c[nH]c2ccc(F)cc12)C1COc2c(F)ccc(C(N)=O)c2C1 (single isomer, unassigned) [Compound 12a, 8-fluoro-3-[[3-(5-fluoro-1H-indol-3-yl)-1-methylpropyl](propyl)amino]-3,4-dihydro-2H-chromene-5-carboxamide] | pIC50 (5-HT1A receptor [1]): 7.32; 5-HT1A Function cAMP (Emax) (5-HT1A receptor [1]): 0%; pIC50 [3]: 6.49; 5-HT1A Function GTPγS (Imax) ([3]; maximum inhibitory effect, in brackets after IC50): 96%
4 |  |  | 6.89 | 6.84 | CC(Cc1c[nH]c2ccc(F)cc12)CN(CC1CC1)[C@H]1COc2c(F)ccc(C(N)=O)c2C1 (single isomer, unassigned) [Compound 155b] | pIC50 (5-HT1A receptor [1]): 6.07; 5-HT1A Function cAMP (Emax) (5-HT1A receptor [1]): 0%
5 | 7.01 | 81% | 7.61 | 6.63 | CCN(CCCc1c[nH]c2ccc(OC)cc12)C1COc2c(F)ccc(C(N)=O)c2C1 (stereo not drawn) [Compound 105, 3-{ethyl[3-(5-methoxy-1H-indol-3-yl)propyl]amino}-8-fluorochromane-5-carboxamide] | 
6 |  |  | 7.41 | 8.42 | CCCNC(=O)c1cccc2c1CC(N(CCCc1c[nH]c3c(F)cc(F)cc13)C1CCC1)CO2 (stereo not drawn) [Compound 140, 3-{cyclobutyl[3-(5,7-difluoro-1H-indol-3-yl)propyl]amino}-N-propylchromane-5-carboxamide] | pEC50 [3]: 5.99; Emax [3, 4]: 65%
7 |  |  | 8.11 | 8.45 | CC(C)NC(=O)c1cccc2c1CC(N(CCCc1c[nH]c3c(F)cc(F)cc13)C1CCC1)CO2 (stereo not drawn) [Compound 141, 3-{cyclobutyl[3-(5,7-difluoro-1H-indol-3-yl)propyl]amino}-N-isopropylchromane-5-carboxamide] | pEC50 [3]: 6.54; Emax [3, 4]: 99%
8 |  |  | 8.39 | 8.41 | O=C(NC1CC1)c1cccc2c1CC(N(CCCc1c[nH]c3c(F)cc(F)cc13)C1CCC1)CO2 (stereo not drawn) [Compound 142, 3-{cyclobutyl[3-(5,7-difluoro-1H-indol-3-yl)propyl]amino}-N-cyclopropylchromane-5-carboxamide] | pEC50 [3]: 6.91; Emax [3, 4]: 54%
9 |  | 0% | 8.52 | 7.97 | NC(=O)c1ccc(F)c2c1C[C@@H](N(CCCc1c[nH]c3c(F)cc(F)cc13)CC1CC1)CO2 [Compound 147, (3R)-3-{(cyclopropylmethyl)[3-(5,7-difluoro-1H-indol-3-yl)propyl]amino}-8-fluorochromane-5-carboxamide] | pIC50 (5-HT1A receptor [1]): 6.30
10 | 6.77 | 94% | 6.99 | 5.92 | CC(C)CN(CCCc1c[nH]c2ccc(F)cc12)C1COc2cccc(C(N)=O)c2C1 (stereo not drawn) [Compound 151, 3-[[3-(5-fluoro-1H-indol-3-yl)propyl](isobutyl)amino]chromane-5-carboxamide] | 
11 |  |  |  | 6.83 | COc1cccc2c(CCN(C3CCC3)C3COc4c(F)ccc(C(N)=O)c4C3)coc12 (stereo not drawn) [Compound 159, 3-{cyclobutyl[2-(7-methoxy-1-benzofuran-3-yl)ethyl]amino}-8-fluorochromane-5-carboxamide] | inhibition at 1 µM (5-HT1A receptor [2]; read-out: 5-HT1A Receptor Affinity, % @ 1 μM): 30%; pIC50 [3]: 5.30; Emax [3, 5]: 25%
12 |  | 0% | 7.85 | 6.30 | CCCCN(CCCc1coc2c(OC)cccc12)C1COc2c(F)ccc(C(N)=O)c2C1 (stereo not drawn) [Compound 166, 3-{butyl[3-(7-methoxy-1-benzofuran-3-yl)propyl]amino}-8-fluorochromane-5-carboxamide] | pIC50 (5-HT1A receptor [1]): 6.52
13 |  | 0% | 6.30 | 6.29 | CCCN(CCCCc1coc2c(OC)cccc12)[C@H]1COc2c(F)ccc(C(N)=O)c2C1 [Compound 172, (3R)-8-fluoro-3-[[4-(7-methoxy-1-benzofuran-3-yl)butyl](propyl)amino]chromane-5-carboxamide] | pIC50 (5-HT1A receptor [1]): 6.42
14 | 6.93 | 89% | 7.67 | 7.81 | CCN(CCCCn1ccc2ccc(F)cc21)C1COc2c(F)ccc(C(N)=O)c2C1 (stereo not drawn) [Compound 193, 3-{Ethyl[4-(6-fluoro-1H-indol-1-yl)butyl]amino}-8-fluorochromane-5-carboxamide] | 
15 | 6.68 | 92% | 7.37 | 7.02 | CCN(CCCCn1ccc2c(F)cccc21)C1COc2c(F)ccc(C(N)=O)c2C1 (stereo not drawn) [Compound 201, 3-{Ethyl[4-(4-fluoro-1H-indol-1-yl)butyl]amino}-8-fluorochromane-5-carboxamide] | 

Row | SMILES | pEC50 (5-HT1A receptor [1]) | Emax (5-HT1A receptor [1]) | pKi (5-HT1A receptor [2]) | pKi (serotonin transporter) | other results
16 | N#Cc1ccc2[nH]cc(CCCN(C3CCC3)[C@@H]3COc4c(F)ccc(C(N)=O)c4C3)c2c1 [Compound 97a, (3S)-3-[[3-(5-cyano-1H-indol-3-yl)propyl](cyclobutyl)amino]-8-fluorochromane-5-carboxamide] |  | 0% | 6.59 | 8.05 | pIC50 (5-HT1A receptor [1]): 6.24
17 | NC(=O)c1ccc(F)c2c1CC(N(CCCCn1ccc3cccc(F)c31)CC1CC1)CO2 (stereo not drawn) [Compound 191, 3-{(Cyclopropylmethyl)[4-(7-fluoro-1H-indol-1-yl)butyl]amino}-8-fluorochromane-5-carboxamide] |  |  | 7.72 | 7.41 | pIC50 [3]: 6.69; Emax [3, 5]: 74%
18 | NC(=O)c1ccc(F)c2c1CC(N(CCCCn1ccc3cccc(F)c31)C1CCC1)CO2 (stereo not drawn) [Compound 192, 3-{Cyclobutyl[4-(7-fluoro-1H-indol-1-yl)butyl]amino}-8-fluorochromane-5-carboxamide] |  |  | 7.40 | 7.41 | pIC50 [3]: 5.76; Emax [3, 5]: 86%
19 | CCCN(CCCCn1ccc2ccc(F)cc21)C1COc2c(F)ccc(C(N)=O)c2C1 (stereo not drawn) [Compound 194, 8-Fluoro-3-[[4-(6-fluoro-1H-indol-1-yl)butyl](propyl)amino]chromane-5-carboxamide] | 7.13 | 81% | 7.97 | 7.15 | 
20 | NC(=O)c1ccc(F)c2c1CC(N(CCCCn1ccc3ccc(F)cc31)C1CCC1)CO2 (stereo not drawn) [Compound 196, 3-{Cyclobutyl[4-(6-fluoro-1H-indol-1-yl)butyl]amino}-8-fluorochromane-5-carboxamide] |  |  | 7.89 | 6.91 | pIC50 [3]: 6.37; Emax [3, 5]: 100%
21 | CCCN(CCCCn1ccc2cc(F)ccc21)C1COc2c(F)ccc(C(N)=O)c2C1 (stereo not drawn) [Compound 198, 8-Fluoro-3-[[4-(5-fluoro-1H-indol-1-yl)butyl](propyl)amino]chromane-5-carboxamide] | 7.17 | 82% | 8.18 | 6.94 | 
22 | NC(=O)c1ccc(F)c2c1CC(N(CCCCn1ccc3cc(F)ccc31)CC1CC1)CO2 (stereo not drawn) [Compound 199, 3-{(Cyclopropylmethyl)[4-(5-fluoro-1H-indol-1-yl)butyl]amino}-8-fluorochromane-5-carboxamide] | 7.13 | 72% | 8.26 | 7.11 | 
23 | NC(=O)c1ccc(F)c2c1CC(N(CCCCn1ccc3cc(F)ccc31)C1CCC1)CO2 (stereo not drawn) [Compound 200, 3-{Cyclobutyl[4-(5-fluoro-1H-indol-1-yl)butyl]amino}-8-fluorochromane-5-carboxamide] |  |  | 7.97 | 6.62 | pIC50 [3]: 5.95; Emax [3, 5]: 100%
24 | CCCN(CCCCn1ccc2c(F)cccc21)C1COc2c(F)ccc(C(N)=O)c2C1 (stereo not drawn) [Compound 202, 8-Fluoro-3-[[4-(4-fluoro-1H-indol-1-yl)butyl](propyl)amino]chromane-5-carboxamide] | 6.86 | 78% | 7.85 | 6.68 | 
